Values of other authors, collected in patent publication US6924277B2, “Cyclized benzamide neurokinin antagonists for use in therapy” (AstraZeneca AB, priority 2000, dated 2005).
Like-named read-outs stand apart in the source and are kept apart here. Peptide text beside a SMILES is read from it.

Tests used:
[1] = Elevated plus-maze
[2] = Forced swim test (depression model); only at 30 mg/kg bid; Vassout et al, Neuropeptides 26/S1: 38, 1994
[3] = Light-dark box
Marmoset = Marmoset human intruder; Walsh et al., Psychopharmacology 121: 186-191, 1995
[4] = Teixeira et al., Eur J Pharmacol 311(1): 7-14, 1996
[5] = Stratton et al., Eur. J. Pharmacol. 250: R11-12, 1993
[6] = Walsh et al., Psychopharmacology 121: 186-191, 1995

Structure (SMILES) | Outcome [1, 4] | Outcome [3, 5] | Outcome [3, 6] | Outcome (Marmoset) | other results
Cc1cc(C)cc(C(=O)N2CC[C@H](NCc3ccnc4ccccc34)C[C@H]2Cc2ccccc2)c1 [CGP 49823] |  |  |  |  | Outcome (Social interaction test, Vassout et al, Neuropeptides 26/S1: 38, 1994): anxiolytic; Outcome (Social interaction, File, Pharm Bio B 58(3): 747-752, 1997): anxiolytic; Outcome ([1]; Vassout et al, Neuropeptides 26/S1: 38, 1994): inactive; Outcome [2]: antidepressant
CN(Cc1ccccc1)C(=O)[C@H](Cc1ccc2ccccc2c1)NC(=O)[C@@H]1C[C@@H](O)CN1C(=O)c1cn(C)c2ccccc12 [FK888] | anxiolytic |  |  |  | 
CC(=O)NC1(c2ccccc2)CCN(CC[C@H](CN(C)C(=O)c2ccccc2)c2ccc(Cl)c(Cl)c2)CC1 [SR48968] | anxiolytic | anxiolytic | anxiolytic | anxiolytic | 
C[C@H](NC(=O)CNC(=O)C1CCCCC1)C(=O)N[C@H](Cc1c[nH]c2ccccc12)C(=O)N[C@@H](Cc1ccccc1)C(=O)N(C)C [GR100679] (HELM PEPTIDE1{[O=C(C1CCCCC1)[*:2]].G.A.[dW].F.[CN(C)[*:1]]}$$$$V2.0) |  | anxiolytic |  |  | 
COC1(C[S@@+]([O-])c2ccccc2)CCN(CCc2c[nH]c3ccc(F)cc23)CC1 [GR159897] |  |  | anxiolytic | anxiolytic | 
